SMILES strings stand for the structures.

These results are taken from patent publication US20230381280A1, “NEW DOSAGE REGIMEN FOR INHALED VASOACTIVE INTESTINAL POLYPEPTIDE” (priority 2020, published 2023).

This series concerns COVID-19 pulmonary involvement.

On to `CC[C@H](C)[C@H](NC(=O)[C@H](CO)NC(=O)[C@H](CC(N)=O)NC(=O)[C@H](CC(C)C)NC(=O)[C@H](Cc1ccc(O)cc1)NC(=O)[C@H](CCCCN)NC(=O)[C@H](CCCCN)NC(=O)[C@@H](NC(=O)[C@H](C)NC(=O)[C@H](CCSC)NC(=O)[C@H](CCC(N)=O)NC(=O)[C@H](CCCCN)NC(=O)[C@H](CCCNC(=N)N)NC(=O)[C@H](CC(C)C)NC(=O)[C@H](CCCNC(=N)N)NC(=O)[C@@H](NC(=O)[C@H](Cc1ccc(O)cc1)NC(=O)[C@H](CC(N)=O)NC(=O)[C@H](CC(=O)O)NC(=O)[C@@H](NC(=O)[C@H](Cc1ccccc1)NC(=O)[C@@H](NC(=O)[C@H](C)NC(=O)[C@H](CC(=O)O)NC(=O)[C@H](CO)NC(=O)[C@@H](N)Cc1c[nH]cn1)C(C)C)[C@@H](C)O)[C@@H](C)O)C(C)C)C(=O)N[C@@H](CC(C)C)C(=O)N[C@@H](CC(N)=O)C(N)=O` [Aviptadil], for which the “Entering Intensive Care (%)” value (Age >=60, treatment group) amounted to 25%. Besides, under “human, in vivo”, the Tolerability entry is reported as “well tolerated”.
